Test results taken from ChEMBL document CHEMBL4507276 (2021).

Columns and labels:
[1] = biological target: Beta-2 adrenergic receptor (Homo sapiens) (UniProt P07550); assay: BETA2/HU Eurofins-Panlabs selectivity data (BI); conditions: Compound concentration 10.0 uM
[2] = biological target: Delta-type opioid receptor (Homo sapiens) (UniProt P41143); assay: DELTA/HU Eurofins-Panlabs selectivity data (BI); conditions: Compound concentration 10.0 uM
[3] = biological target: Leucine-rich repeat serine/threonine-protein kinase 2 (Homo sapiens) (UniProt Q5S007); assay: LRRK2 Invitrogen selectivity data (BI); conditions: Compound concentration 3.0 uM
[4] = biological target: L-type Ca2+ channel (diltiazem site), Cav1.2 alpha-1C (Rattus norvegicus, UniProt P22002); assay: CA+/DILSI/R Cerep selectivity data (BI); parameters: mode of action inhibitor; conditions: rat brain, probe [3H]diltiazem, compound concentration 20 uM, read-out: % Ctrl
[5] = biological target: Apelin receptor (Homo sapiens) (UniProt P35414); assay: APJH_AGON Cerep selectivity data (BI); conditions: filed as agonist, Compound concentration 20.0 uM
[6] = biological target: D(1A) dopamine receptor (Homo sapiens) (UniProt P21728); assay: D1/HU Eurofins-Panlabs selectivity data (BI); conditions: Compound concentration 10.0 uM
[7] = biological target: Activated CDC42 kinase 1 (Homo sapiens) (UniProt Q07912); assay: TNK2 Invitrogen selectivity data (BI); conditions: Compound concentration 3.0 uM
[8] = biological target: Proto-oncogene tyrosine-protein kinase Src (Homo sapiens) (UniProt P12931); assay: SRC Invitrogen selectivity data (BI); conditions: Compound concentration 3.0 uM
[9] = biological target: Non-receptor tyrosine-protein kinase TYK2 (Homo sapiens) (UniProt P29597); assay: TYK2 Invitrogen selectivity data (BI); conditions: Compound concentration 3.0 uM
[10] = biological target: Protein kinase C eta type (Homo sapiens) (UniProt P24723); assay: PRKCH Invitrogen selectivity data (BI); conditions: Compound concentration 3.0 uM
[11] = biological target: T1, Mitogen-activated protein kinase kinase kinase kinase 2 (Homo sapiens) (UniProt Q12851); assay: MAP4K2 Invitrogen selectivity data (BI); conditions: Compound concentration 3.0 uM
T1 sequence (whole entry): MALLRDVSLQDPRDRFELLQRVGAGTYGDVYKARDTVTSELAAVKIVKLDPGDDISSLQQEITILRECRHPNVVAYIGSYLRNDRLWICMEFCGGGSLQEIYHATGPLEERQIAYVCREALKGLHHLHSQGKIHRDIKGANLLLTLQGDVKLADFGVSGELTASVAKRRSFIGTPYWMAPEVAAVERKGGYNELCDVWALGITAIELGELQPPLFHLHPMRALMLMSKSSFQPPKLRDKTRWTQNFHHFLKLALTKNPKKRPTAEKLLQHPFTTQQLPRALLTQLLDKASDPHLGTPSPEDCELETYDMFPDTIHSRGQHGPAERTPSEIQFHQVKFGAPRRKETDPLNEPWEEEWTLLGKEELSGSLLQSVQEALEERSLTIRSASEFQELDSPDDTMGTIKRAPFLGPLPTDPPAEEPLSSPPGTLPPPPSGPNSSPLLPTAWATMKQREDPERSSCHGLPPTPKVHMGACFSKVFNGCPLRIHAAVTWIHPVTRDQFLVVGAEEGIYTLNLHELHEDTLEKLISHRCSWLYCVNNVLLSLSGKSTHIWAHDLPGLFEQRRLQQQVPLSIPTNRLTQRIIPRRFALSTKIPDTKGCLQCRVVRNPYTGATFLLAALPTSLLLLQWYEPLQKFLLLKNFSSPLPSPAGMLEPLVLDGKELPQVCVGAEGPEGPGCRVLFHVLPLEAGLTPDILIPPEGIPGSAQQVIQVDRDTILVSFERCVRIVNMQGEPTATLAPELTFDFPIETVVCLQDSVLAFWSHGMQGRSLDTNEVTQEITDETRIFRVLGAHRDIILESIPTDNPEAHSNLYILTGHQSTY

[12] = biological target: Calcium/calmodulin-dependent protein kinase type II subunit beta (Homo sapiens) (UniProt Q13554); assay: CAMK2B Invitrogen selectivity data (BI); conditions: Compound concentration 3.0 uM
[13] = biological target: Adenosine receptor A2a (Homo sapiens) (UniProt P29274); assay: A2A/HU Eurofins-Panlabs selectivity data (BI); conditions: Compound concentration 10.0 uM
[14] = biological target: MAO-A (amine oxidase [flavin-containing] A) (Rattus norvegicus, UniProt P21396); assay: MAO-A_ANTAG Cerep selectivity data (BI); parameters: mode of action antagonist; scale not given: the % may be the effect or the level left; conditions: compound concentration 20 uM, read-out: % Ctrl
[15] = biological target: Phosphatidylinositol 3-kinase catalytic subunit type 3 (Homo sapiens) (UniProt Q8NEB9); assay: PIK3C3 Invitrogen selectivity data (BI); conditions: Compound concentration 3.0 uM
[16] = biological target: Endothelin-1 receptor (Homo sapiens) (UniProt P25101); assay: ETA/HU Eurofins-Panlabs selectivity data (BI); conditions: Compound concentration 10.0 uM
[17] = biological target: Calcium/calmodulin-dependent protein kinase kinase 1 (Homo sapiens) (UniProt Q8N5S9); assay: CAMKK1 Invitrogen selectivity data (BI); conditions: Compound concentration 3.0 uM
[18] = biological target: MAP kinase-interacting serine/threonine-protein kinase 1 (Homo sapiens) (UniProt Q9BUB5); assay: MKNK1 Invitrogen selectivity data (BI); conditions: Compound concentration 3.0 uM
[19] = biological target: T2, Serine/threonine-protein kinase BRSK1 (Homo sapiens) (UniProt Q8TDC3); assay: BRSK1 Invitrogen selectivity data (BI); conditions: Compound concentration 3.0 uM
T2 sequence (whole entry): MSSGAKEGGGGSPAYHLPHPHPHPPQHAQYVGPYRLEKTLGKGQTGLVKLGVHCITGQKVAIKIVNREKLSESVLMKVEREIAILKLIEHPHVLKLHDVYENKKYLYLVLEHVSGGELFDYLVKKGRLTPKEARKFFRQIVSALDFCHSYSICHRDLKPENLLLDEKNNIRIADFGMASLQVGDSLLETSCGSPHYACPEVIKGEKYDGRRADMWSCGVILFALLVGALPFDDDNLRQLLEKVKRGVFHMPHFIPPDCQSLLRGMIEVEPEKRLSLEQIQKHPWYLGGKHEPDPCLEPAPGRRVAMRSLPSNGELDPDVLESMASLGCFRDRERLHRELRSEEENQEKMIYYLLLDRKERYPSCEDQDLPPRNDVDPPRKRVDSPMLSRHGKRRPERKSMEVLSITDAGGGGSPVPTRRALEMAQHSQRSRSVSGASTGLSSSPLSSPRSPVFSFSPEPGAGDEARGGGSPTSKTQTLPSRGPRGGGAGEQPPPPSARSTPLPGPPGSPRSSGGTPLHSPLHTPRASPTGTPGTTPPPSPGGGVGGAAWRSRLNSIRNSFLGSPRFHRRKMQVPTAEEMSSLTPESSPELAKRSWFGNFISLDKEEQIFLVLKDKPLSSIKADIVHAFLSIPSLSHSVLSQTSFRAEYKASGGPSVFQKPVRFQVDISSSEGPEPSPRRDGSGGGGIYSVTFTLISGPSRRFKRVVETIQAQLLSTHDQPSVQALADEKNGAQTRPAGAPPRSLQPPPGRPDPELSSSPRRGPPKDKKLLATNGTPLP

[20] = biological target: Serine/threonine-protein kinase N1 (Homo sapiens) (UniProt Q16512); assay: PKN1 Invitrogen selectivity data (BI); conditions: Compound concentration 3.0 uM
[21] = biological target: Tyrosine-protein kinase Fes/Fps (Homo sapiens) (UniProt P07332); assay: FES Invitrogen selectivity data (BI); conditions: Compound concentration 3.0 uM
[22] = biological target: Mitogen-activated protein kinase 9 (Homo sapiens) (UniProt P45984); assay: MAPK9 Invitrogen selectivity data (BI); conditions: Compound concentration 3.0 uM
[23] = biological target: Nicotinic acetylcholine receptor alpha-1/beta-1 (Homo sapiens) (UniProt P02708+P11230); assay: NACH_BS_N/H Eurofins-Panlabs selectivity data (BI); assay type: protein-complex assay; conditions: Compound concentration 10.0 uM

Sequence of MAP kinase-interacting serine/threonine-protein kinase 1 (Homo sapiens) (Q9BUB5 whole entry, looked up): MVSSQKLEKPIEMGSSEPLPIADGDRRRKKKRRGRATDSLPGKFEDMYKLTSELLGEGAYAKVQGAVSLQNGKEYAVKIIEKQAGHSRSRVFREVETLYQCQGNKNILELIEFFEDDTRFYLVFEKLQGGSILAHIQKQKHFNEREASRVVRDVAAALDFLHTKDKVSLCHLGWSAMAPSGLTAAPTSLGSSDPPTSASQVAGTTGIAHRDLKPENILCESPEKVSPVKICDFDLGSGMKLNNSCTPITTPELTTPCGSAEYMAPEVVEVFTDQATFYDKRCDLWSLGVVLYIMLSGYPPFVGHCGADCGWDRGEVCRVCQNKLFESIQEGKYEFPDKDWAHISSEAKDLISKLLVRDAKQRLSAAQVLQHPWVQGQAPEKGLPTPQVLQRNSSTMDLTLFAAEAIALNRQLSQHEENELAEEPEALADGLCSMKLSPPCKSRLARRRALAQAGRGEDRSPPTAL
Sequence of Calcium/calmodulin-dependent protein kinase kinase 1 (Homo sapiens) (Q8N5S9 whole entry, looked up): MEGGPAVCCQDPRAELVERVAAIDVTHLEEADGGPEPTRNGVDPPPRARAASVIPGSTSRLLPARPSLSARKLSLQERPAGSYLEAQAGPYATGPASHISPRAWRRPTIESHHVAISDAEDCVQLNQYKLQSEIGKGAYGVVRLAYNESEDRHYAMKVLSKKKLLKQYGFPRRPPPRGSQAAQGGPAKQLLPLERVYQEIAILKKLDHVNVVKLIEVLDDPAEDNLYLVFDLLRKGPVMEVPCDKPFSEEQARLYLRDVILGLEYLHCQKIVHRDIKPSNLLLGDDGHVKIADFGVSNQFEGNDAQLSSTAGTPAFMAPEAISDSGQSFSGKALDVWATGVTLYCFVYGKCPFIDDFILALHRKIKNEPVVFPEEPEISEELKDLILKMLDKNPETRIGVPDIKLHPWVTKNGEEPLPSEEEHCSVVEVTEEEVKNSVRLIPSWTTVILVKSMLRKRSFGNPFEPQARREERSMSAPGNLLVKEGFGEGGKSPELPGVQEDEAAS
Sequence of Phosphatidylinositol 3-kinase catalytic subunit type 3 (Homo sapiens) (Q8NEB9 whole entry): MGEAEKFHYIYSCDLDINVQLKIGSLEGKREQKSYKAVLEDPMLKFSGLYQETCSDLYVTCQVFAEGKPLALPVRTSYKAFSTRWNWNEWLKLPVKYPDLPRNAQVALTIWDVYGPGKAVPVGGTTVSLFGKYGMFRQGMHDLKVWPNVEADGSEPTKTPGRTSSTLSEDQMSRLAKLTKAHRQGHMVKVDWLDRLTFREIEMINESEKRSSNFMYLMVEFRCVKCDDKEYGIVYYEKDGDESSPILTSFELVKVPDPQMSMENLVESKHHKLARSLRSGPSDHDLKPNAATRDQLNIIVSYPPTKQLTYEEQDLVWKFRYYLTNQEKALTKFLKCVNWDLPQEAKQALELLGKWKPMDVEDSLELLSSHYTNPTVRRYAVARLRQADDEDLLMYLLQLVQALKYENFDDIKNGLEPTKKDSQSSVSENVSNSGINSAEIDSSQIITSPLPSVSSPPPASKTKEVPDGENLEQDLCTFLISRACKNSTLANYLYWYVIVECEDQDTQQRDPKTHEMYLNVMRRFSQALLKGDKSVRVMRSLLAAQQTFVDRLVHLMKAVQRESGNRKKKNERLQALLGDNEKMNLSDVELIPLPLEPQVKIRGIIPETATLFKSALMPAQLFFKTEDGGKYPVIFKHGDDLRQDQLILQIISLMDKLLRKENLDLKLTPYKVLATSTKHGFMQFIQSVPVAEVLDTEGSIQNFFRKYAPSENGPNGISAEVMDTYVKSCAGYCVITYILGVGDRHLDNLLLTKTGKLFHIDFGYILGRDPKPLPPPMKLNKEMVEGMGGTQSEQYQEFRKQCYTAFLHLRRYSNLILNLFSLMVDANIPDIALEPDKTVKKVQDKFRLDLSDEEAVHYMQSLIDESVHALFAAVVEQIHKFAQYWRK
Sequence of Serine/threonine-protein kinase N1 (Homo sapiens) (Q16512 2-942 limits assumed): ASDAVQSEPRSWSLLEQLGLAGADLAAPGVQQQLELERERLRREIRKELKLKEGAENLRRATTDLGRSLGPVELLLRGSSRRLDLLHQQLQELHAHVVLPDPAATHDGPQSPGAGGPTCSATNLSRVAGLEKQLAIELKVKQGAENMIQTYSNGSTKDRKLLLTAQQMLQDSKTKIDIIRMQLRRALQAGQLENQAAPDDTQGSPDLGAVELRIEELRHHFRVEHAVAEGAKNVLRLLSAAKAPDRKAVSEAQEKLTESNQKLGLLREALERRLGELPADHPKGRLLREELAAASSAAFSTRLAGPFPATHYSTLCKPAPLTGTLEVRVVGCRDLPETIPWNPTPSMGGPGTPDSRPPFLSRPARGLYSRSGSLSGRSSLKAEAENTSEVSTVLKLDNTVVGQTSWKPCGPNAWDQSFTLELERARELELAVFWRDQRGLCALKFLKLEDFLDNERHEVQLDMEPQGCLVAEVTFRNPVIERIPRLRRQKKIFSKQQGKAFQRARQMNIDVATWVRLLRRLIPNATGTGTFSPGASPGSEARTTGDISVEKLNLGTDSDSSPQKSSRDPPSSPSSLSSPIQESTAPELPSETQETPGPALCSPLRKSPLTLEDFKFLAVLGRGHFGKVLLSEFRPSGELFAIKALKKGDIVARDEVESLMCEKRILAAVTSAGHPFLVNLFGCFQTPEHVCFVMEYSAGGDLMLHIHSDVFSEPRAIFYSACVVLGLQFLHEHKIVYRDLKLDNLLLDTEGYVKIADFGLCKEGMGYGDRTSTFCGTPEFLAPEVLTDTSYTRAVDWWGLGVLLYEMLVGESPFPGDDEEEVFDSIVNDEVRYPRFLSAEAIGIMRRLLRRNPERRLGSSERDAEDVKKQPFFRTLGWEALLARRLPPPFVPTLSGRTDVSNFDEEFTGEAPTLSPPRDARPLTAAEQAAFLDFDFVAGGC
Sequence of Calcium/calmodulin-dependent protein kinase type II subunit beta (Homo sapiens) (Q13554 whole entry): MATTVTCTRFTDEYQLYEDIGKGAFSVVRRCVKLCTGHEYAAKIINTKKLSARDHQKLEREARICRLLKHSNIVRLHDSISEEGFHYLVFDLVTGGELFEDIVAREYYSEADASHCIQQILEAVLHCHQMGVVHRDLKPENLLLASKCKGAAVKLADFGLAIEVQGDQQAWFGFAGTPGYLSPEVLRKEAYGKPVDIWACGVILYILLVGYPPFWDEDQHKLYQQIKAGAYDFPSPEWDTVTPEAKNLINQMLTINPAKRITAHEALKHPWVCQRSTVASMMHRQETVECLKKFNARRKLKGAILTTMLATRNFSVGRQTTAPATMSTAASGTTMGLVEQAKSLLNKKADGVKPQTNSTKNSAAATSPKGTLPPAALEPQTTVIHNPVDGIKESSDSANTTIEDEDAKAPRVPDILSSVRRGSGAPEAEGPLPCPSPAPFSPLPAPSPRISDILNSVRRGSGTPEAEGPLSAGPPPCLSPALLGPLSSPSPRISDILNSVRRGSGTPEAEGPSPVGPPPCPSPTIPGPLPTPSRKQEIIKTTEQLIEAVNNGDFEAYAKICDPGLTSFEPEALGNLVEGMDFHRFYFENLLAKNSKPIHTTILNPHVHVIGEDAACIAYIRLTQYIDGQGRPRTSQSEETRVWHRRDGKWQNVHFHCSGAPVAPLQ
Sequence of Tyrosine-protein kinase Fes/Fps (Homo sapiens) (P07332 whole entry): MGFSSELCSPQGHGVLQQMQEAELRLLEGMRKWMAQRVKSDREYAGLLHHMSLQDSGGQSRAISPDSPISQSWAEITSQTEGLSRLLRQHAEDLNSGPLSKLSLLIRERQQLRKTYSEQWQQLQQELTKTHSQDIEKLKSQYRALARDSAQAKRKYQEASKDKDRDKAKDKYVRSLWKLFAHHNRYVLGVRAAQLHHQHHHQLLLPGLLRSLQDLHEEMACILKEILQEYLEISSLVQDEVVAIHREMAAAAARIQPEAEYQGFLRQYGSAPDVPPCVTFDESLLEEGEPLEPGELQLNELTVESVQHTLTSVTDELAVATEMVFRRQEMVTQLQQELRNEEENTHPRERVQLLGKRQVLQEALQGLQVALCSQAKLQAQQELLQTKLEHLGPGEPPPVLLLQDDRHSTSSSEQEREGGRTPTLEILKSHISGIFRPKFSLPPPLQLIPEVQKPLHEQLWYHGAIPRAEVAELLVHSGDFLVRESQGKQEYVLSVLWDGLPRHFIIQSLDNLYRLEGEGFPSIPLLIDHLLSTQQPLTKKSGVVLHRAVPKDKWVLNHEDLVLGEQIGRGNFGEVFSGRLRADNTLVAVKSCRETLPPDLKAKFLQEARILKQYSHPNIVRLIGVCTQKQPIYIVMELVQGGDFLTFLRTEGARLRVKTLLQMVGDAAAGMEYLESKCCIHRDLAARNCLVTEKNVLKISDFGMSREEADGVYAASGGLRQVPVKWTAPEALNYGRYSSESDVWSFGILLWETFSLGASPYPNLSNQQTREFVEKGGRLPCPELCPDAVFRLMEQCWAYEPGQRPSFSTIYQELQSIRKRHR
Sequence of Delta-type opioid receptor (Homo sapiens) (P41143 whole entry): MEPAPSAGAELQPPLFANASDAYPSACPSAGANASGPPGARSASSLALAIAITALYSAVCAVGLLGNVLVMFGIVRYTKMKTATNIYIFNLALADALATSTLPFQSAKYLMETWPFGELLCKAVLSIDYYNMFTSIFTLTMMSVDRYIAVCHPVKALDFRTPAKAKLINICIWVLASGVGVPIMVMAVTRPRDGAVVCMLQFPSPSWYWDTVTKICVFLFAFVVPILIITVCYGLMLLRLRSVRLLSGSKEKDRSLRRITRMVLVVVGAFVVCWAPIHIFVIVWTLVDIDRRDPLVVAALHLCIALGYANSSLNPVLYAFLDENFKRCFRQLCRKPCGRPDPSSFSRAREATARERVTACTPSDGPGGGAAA
Sequence of Apelin receptor (Homo sapiens) (P35414 whole entry): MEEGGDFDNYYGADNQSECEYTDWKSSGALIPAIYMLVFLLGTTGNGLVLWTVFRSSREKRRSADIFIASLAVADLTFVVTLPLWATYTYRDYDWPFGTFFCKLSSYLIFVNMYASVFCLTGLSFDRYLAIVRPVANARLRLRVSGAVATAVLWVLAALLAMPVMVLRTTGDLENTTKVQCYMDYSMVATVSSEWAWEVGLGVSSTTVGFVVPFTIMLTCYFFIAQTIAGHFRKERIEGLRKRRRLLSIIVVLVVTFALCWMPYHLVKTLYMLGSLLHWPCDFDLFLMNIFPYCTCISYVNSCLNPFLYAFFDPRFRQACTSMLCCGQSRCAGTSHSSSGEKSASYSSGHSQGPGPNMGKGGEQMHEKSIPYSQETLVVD

CN(C)C(=O)Cn1cc(-c2nc([C@@](C)(c3ccc(-c4cnc(N)nc4)cc3)C3CC3)no2)cn1 [BI 665915]
residual activity [1]: 101%
residual activity [2]: 96%
residual activity [3]: 96%
activity at 20 µM [4]: 119% (not active)
residual activity [5]: 101%
residual activity [6]: 108%
residual activity [7]: 99%
residual activity [8]: 90.5%
residual activity [9]: 97.5%
residual activity [10]: 86%
residual activity [11]: 99.5%
residual activity [12]: 95%
residual activity [13]: 105%
activity at 20 µM [14]: 91% (not active)
residual activity [15]: 94.5%
residual activity [16]: 98%
residual activity [17]: 102%
residual activity [18]: 99%
residual activity [19]: 90.5%
residual activity [20]: 98.5%
residual activity [21]: 94.5%
residual activity [22]: 101%
residual activity [23]: 99%
